According to patent publication US20040224995A1 (University of North Texas Health Science Center at Fort …, priority 2003, published 2004):

Legend:
SK—N—SH cells = assay: SK-N-SH H2O2 and serum deprivation insults; type: cell-based, human
Method: Additionally, the effects of pretreatment with PPARγ agonists on H2O2 and serum deprivation toxicities were studied in SK—N—SH cells. After showing that protection in HT-22 cells was insult-type specific, we investigated whether it was also cell-type specific. We used SK—N—SH, a human neuroblastoma cell lines, and tested whether 15d-PGJ2 and troglitazone would protect SK—N—SH against H2O2 and serum deprivation insults. […] Higher concentrations (>10 μM and >20 μM) of 15dPGJ2 and troglitazone, respectively, were toxic to SK—N—SH cells.
The WY-14643, Ciglitazone, Troglitazone, 9-cis retinoic acid, and 15d-PGJ2 compounds were purchased from Biomol (Plymouth Meeting, Pa.). L-165041 and L-783483 were kindly provided by Merck Laboratories. The cell lines used were HT-22, an immortalized mouse hippocampal cell line, and SK—N—SH, a human neuroblastoma cell line. The HT-22 cells were obtained from David Schubert (Salk Institute, San Diego, Calif.). The HT-22 line was originally selected from HT-4 cells based on glutamate sensitivity. HT-4 cells were immortalized from primary hippocampal neurons using a temperature-sensitive SV-40 T antigen (Morimoto and Koshland, 1990). SK—N—SH were obtained from ATCC (Manassas, Va.). HT-22 and SK—N—SH cells were grown to confluence in DMEM and RPMI-1640 media, respectively, and supplemented with 10% charcoal/dextran-treated fetal bovine serum (FBS), and 5 mg/ml gentamycin at 37° C. under 95% air, 5% CO2. HT-22 cells were plated at a density of 50,000 cells/ml (5,000 cells/well), and SK—N—SH were plated at a density of 120,000 to 150,000 cells/ml (12,000 to 15,000 cells/well) in 96-well plates. In most studies, wells were pre-treated with PPAR ligands over a wide dose range at various times prior to being subjected to either glutamate, hydrogen peroxide (H2O2), or serum deprivation insults. In some studies, the insults were applied prior to the addition of the PPAR ligand.
The cell viability assays were conducted about 14 to 24 hours post-insult time, viability of cells was determined using 2.5 μM Calcein AM assay in phosphate-buffered saline (PBS). After 25 minutes of incubation, live cells were distinguished by the presence of intracellular esterase activity, which cleaves the calcein AM dye, producing a bright green fluorescence. Viability was measured in Relative Fluorescent Units (“RFU”), and expressed as percentage of vehicle-treated control values. The calcein assay was designed to produce results that accurately reflect viable cell numbers. At cell concentrations below 10,000 cells per well (96-well plate) a linear relationship between RFU and cell number is achieved (r^2=0.9997, data not shown).

RGC-5 cells = assay: RGC-5 cell viability during BSO exposure; type: cell-based
Method: The in vitro model used for oxidative cell death was based upon glutamate, hydrogen peroxide, and buthionine sulfoximine (“BSO”) administration to HT-22 mouse hippocampal, C6 rat glioma, and RGC-5 retinal ganglion cell lines. The ease that the above cell lines are cultured is well known in the art of cell culture. Additionally, these cell lines are suitable for screening a various number of compounds described in the present invention.
Although not wanting to be bound by theory, the toxicity of glutamate in HT-22 (32) and C6 glioma (33) cell lines is mediated through oxidative stress. HT-22 cells lack ionotropic N-methyl-D-aspartate (“NMDA”) glutamate receptors, and the glutamate-induced cell death appears to occur via a slow onset oxidative stress (32,34,35). Glutamate blocks cystine uptake by inhibiting the glutamate/cystine antiporter in both HT-22 (32) and C6 glioma (33) cell lines. […] In some of the experiments, the viability of cells was determined using 2.5 μM calcein AM assay in phosphate-buffered saline (PBS 1×). After 25 minutes of incubation, live cells were distinguished by the presence of intracellular esterase activity, which cleaves the calcein AM dye, producing a bright green fluorescence, as shown in FIG. 22. Viability was measured in Relative Fluorescent Units (“RFU”), and expressed as percentage of vehicle-treated control values. […]

Compound | concentrations toxic to SK-N-SH cells (SK—N—SH cells) [µM] | protection against H2O2 and serum deprivation insults (SK—N—SH cells) | protection against BSO (RGC-5 cells)
Cc1c(C)c2c(c(C)c1O)CCC(C)(COc1ccc(CC3SC(=O)NC3=O)cc1)O2 (centres unmarked) [troglitazone] | > 20 | Neither of the compounds protected | protected
CCCCC/C=C/C=C1/C(=O)C=C[C@@H]1C/C=C\CCCC(=O)O [15d-PGJ2, 15-deoxy-Δ^12,14-PGJ2] | > 10 | Neither of the compounds protected | –
